Assay: Inhibitory activity against HIV-1 IIIB in CEM-SS infected cells (Experiment 1)

Cc1cn([C@H]2C[C@H](N=[N+]=[N-])[C@@H](CO)O2)c(=O)[nH]c1=O [1-((2R,4S,5S)-4-Azido-5-hydroxymethyl-tetrahydro-furan-2-yl)-5-methyl-1H-pyrimidine-2,4-dione]
EC50: 126 nM

Reference: BindingDB's records for doi:10.1016/s0960-894x(99)00089-x (Kyoto Pharmaceutical University, 1999)
